Like-named read-outs stand apart in the source and are kept apart here.

Data on five molecules can be found in US12441762B2, “Hepatitis c virus NS3/4A protease inhibitors” (priority 2019, dated 2025).

The conditions of data set [1]: rcm bond, 15-membered ring, Zhan 1B, 1,2-DCE, 70.0 °C.
In data set [2] the target is T1, wild-type HCV NS3/4A protease (GT1a) (Hepatitis C virus genotype 1a, UniProt P27958, C1185S).
T1 construct: His-tag (cleaved yes); made in house; host or cells: Escherichia coli BL21(DE3), PET28a vector
The data set is described as follows: biochemical. Type of data set: biochemical. In outline: (§1)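 Inhibitors pre-incubated 1 h at room temperature with 2 nM NS3/4A protease (GT1a C159S or D168A) in 50 mM Tris, 5% glycerol, 10 mM DTT, 0.6 mM LDAO, 4% DMSO, pH 7.5. Km from global Michaelis-Menten fit of inner-filter-corrected initial velocities; three independent data sets per inhibitor and construct.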

The target of data set [3] is T2, HCV NS3/4A protease D168A variant (Hepatitis C virus genotype 1a, UniProt P27958, C1185S/D1194A).
T2 construct: His-tag (cleaved yes); made in house; host or cells: Escherichia coli BL21(DE3), PET28a vector
The data set is described as follows: biochemical. Type of data set: biochemical. A digest of the protocol:
as §1

The conditions of data set [4]: rcm bond, 70.0 °C, 6.0 h.
For data set [5], the system named is HCV NS3/4A protease D168A variant. Briefly: biochemical. Type of data set: biochemical, Hepatitis C virus. The following applies: Table S1, value in parentheses. A digest of the protocol:
as §1

Data set [6] deals with HCV NS3/4A protease GT3 (Hepatitis C virus genotype 3a, UniProt Q81495). The data set is described as follows: biochemical.
Chain of HCV NS3/4A protease GT3 (Q81495 1033-1214): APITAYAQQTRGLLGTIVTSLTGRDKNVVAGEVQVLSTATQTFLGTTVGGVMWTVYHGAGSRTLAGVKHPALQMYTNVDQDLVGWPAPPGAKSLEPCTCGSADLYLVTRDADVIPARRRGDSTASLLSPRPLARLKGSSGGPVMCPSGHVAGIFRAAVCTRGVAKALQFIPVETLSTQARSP
Chain of HCV NS3/4A protease GT3 (Q81495 1664-1717): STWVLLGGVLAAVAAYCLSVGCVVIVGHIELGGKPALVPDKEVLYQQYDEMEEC

T1 sequence (P27958 1027-1208 C1185S): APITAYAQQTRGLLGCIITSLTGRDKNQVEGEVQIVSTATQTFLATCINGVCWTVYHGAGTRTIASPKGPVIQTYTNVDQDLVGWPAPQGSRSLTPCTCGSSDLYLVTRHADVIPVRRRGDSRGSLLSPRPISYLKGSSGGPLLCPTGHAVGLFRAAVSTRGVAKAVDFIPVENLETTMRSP
T2 sequence (P27958 1027-1208 C1185S/D1194A): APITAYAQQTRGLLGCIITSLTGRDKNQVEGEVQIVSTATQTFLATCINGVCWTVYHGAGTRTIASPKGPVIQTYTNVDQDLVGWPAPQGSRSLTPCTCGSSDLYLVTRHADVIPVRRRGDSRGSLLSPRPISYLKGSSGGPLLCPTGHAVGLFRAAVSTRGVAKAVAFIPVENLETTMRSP

For “tert-Butyl ((2R,6S,13aS,14aR,16aS, Z)-2-((7-methoxy-3-(trifluoromethyl) quinoxalin-2-yl) oxy)-14a-(((1-methylcyclopropyl) sulfonyl) carbamoyl)-5,16-dioxo-1,2,3,5,6,7,8,9,10,11,13a,14,14a,15,16,16a-hexadecahydrocyclopropa[e]pyrrolo[1,2-a] [1,4] diazacyclopentadecin-6-yl) carbamate”, the ring closure, isolated yield in data set [1] (5.73 mM) was 73%.

Broadly, the Ki is a dissociation constant, usually derived from enzyme kinetics or from competition with a known ligand. A high value points to a looser hold on the target. In the case of `COc1ccc2nc(C(F)(F)F)c(O[C@@H]3C[C@H]4C(=O)N[C@]5(C(=O)NS(=O)(=O)C6(C)CC6)C[C@H]5/C=C\CCCCC[C@H](NC(=O)OC(C)(C)C)C(=O)N4C3)nc2c1` [CH-24, tert-Butyl ((2R,6S,13aS,14aR,16aS, Z)-2-((7-methoxy-3-(trifluoromethyl)quinoxalin-2-yl)oxy)-14a-(((1-methylcyclopropyl)sulfonyl)carbamoyl)-5,16-dioxo-1,2,3,5,6,7,8,9,10,11,13a,14,14a,15,16,16a-hexadecahydrocyclopropa[e]pyrrolo[1,2-a] [1,4]diazacyclopentadecin-6-yl) carbamate], the figures for the Ki in data set [2] and in data set [3] were 5.77 ± 1.78 nM and 118 ± 13 nM, respectively. The molecule further came in with a ring closure, yield of all isomers in data set [4] (from C=CCCCCC[C@H](NC(=O)OC(C)(C)C)C(=O)N1C[C@H](Oc2nc3cc(OC)ccc3nc2C(F)(F)F)C[C@H]1C(=O)N[C@]1(C(=O)NS(=O)(=O)C2(C)CC2)C[C@H]1C=C, Zhan 1B, 1,2-dichloroethane, 5.73 mM) of 73%.

“tert-Butyl ((2R,6S,13aS,14aR,16aS, Z)-2-((7-methoxy-3-methylquinoxalin-2-yl) oxy)-14a-(((1-methylcyclopropyl) sulfonyl) carbamoyl)-5,16-dioxo-1,2,3,5,6,7,8,9,10,11,13a,14,14a,15,16,16a-hexadecahydrocyclopropa[e]pyrrolo[1,2-a] [1,4] diazacyclopentadecin-6-yl) carbamate”: in data set [1] (4.95 mM), the ring closure, isolated yield is 70%.

`COc1ccc2nc(C)c(O[C@@H]3C[C@H]4C(=O)N[C@]5(C(=O)NS(=O)(=O)C6(C)CC6)C[C@H]5/C=C\CCCCC[C@H](NC(=O)O[C@@H]5C[C@@H]6C[C@@H]6C5)C(=O)N4C3)nc2c1` [NR03-77, (1R,3R,5S)-Bicyclo[3.1.0]hexan-3-yl ((2R,6S,13aS,14aR,16aS,Z)-2-((7-methoxy-3-methylquinoxalin-2-yl)oxy)-14a-(((1-methylcyclopropyl)sulfonyl)carbamoyl)-5,16-dioxo-1,2,3,5,6,7,8,9,10,11,13a,14,14a,15,16,16a-hexadecahydrocyclopropa[e]pyrrolo[1,2-a][1,4]diazacyclopentadecin-6-yl)carbamate]: the figures for the inhibition constant Ki in data set [2], in data set [3] and in data set [6] were 0.54 ± 0.2 nM, 2.3 ± 0.7 nM and 38.6 ± 1.5 nM, respectively. Further, the “fold improvement in potency against WT compared to P4-2” value in data set [2] (compared to P4-2) was ~3 fold. Further, the “Fold Change of D168A Ki with respect to GT1a wild-type” value in data set [5] is “(4) fold”. In addition, the “fold more potent than grazoprevir towards D168A” value in data set [3] (compared to grazoprevir) is 20 fold. Further, in data set [3] (compared to parent compound), the “fold increase in potency against D168A compared to the parent compound” value is 26 fold.

For `COc1ccc2nc(C)c(O[C@@H]3C[C@H]4C(=O)N[C@]5(C(=O)NS(=O)(=O)C6(C)CC6)C[C@H]5/C=C\CCCCC[C@H](NC(=O)OC(C)(C)C)C(=O)N4C3)nc2c1` [JZ01-15, tert-Butyl ((2R,6S,13aS,14aR,16aS, Z)-2-((7-methoxy-3-methylquinoxalin-2-yl)oxy)-14a-(((1-methylcyclopropyl)sulfonyl)carbamoyl)-5,16-dioxo-1,2,3,5,6,7,8,9,10,11,13a,14,14a,15,16,16a-hexadecahydrocyclopropa[e]pyrrolo[1,2-a] [1,4]diazacyclopentadecin-6-yl) carbamate], the Ki amounted to 3.6 ± 0.44 nM in data set [2] and 52 ± 2.4 nM in data set [3]. Also, the “Fold Change of D168A Ki with respect to GT1a wild-type” value in data set [5] was “(14) fold”. Also, the ring closure, yield of all isomers in data set [4] (from C=CCCCCC[C@H](NC(=O)OC(C)(C)C)C(=O)N1C[C@H](Oc2nc3cc(OC)ccc3nc2C)C[C@H]1C(=O)N[C@]1(C(=O)NS(=O)(=O)C2(C)CC2)C[C@H]1C=C, Zhan 1B, 1,2-dichloroethane, 4.95 mM) was found to be 70%; in data set [4] (from C=CCCCCC[C@H](NC(=O)OC(C)(C)C)C(=O)N1C[C@H](Oc2nc3cc(OC)ccc3nc2C)C[C@H]1C(=O)N[C@]1(C(=O)NS(=O)(=O)C2(C)CC2)C[C@H]1C=C, Zhan 1b catalyst, 1,2-DCE, 4.95 mM) it was 70%.
